Data: PubChem BioAssay AID1259411 (Chemical Carcinogenesis Research Information System (CCRIS), 2018)
Active and inactive are the calls of the source. The rule behind the calls is not given here.

System: rodent carcinogenicity bioassays, tumor incidence
Assay: CCRIS carcinogenicity studies
How it was run: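 Archive of carcinogenicity, mutagenicity, tumor promotion and tumor inhibition results drawn from journals, NCI reports and other sources, expert-reviewed; covers 1985-2011 and is no longer updated.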

With O=[As]O the carcinogen call (Species: Mouse, Strain/Sex: C3H/10 pregnant dams/group, 25 male and 25 female offspring per group assigned at 4 wks of age, Route: Oral, Dose: 0, 42.5, 85 ppm in drinking water of dams, offspring followed for 90 wks, Tumor Site: Type of Lesion: Hepatocellular carcinoma in offspring) was “active; positive”, the carcinogen call (Species: Mouse, Strain/Sex: C3H/Female offspring, Route: Oral, Dose: 0, 85 ppm (in drinking water of dam) in utero) was “inactive; negative” and the carcinogen call (Species: Mouse, Strain/Sex: C3H/Female offspring, Route: Oral, Dose: 0, 85 ppm in drinking water post pubescence (PND 56) to 365 days) was “inactive; negative (hyperplasia only, no tumors)”. The carcinogen call (Species: Mouse, Strain/Sex: C3H/Female offspring, Route: Oral, Dose: 0, 85 ppm in drinking water prior to pubescence (PND 21) to 365 days) was “inactive; negative (hyperplasia only, no increase in tumors)”, the carcinogen call (Species: Mouse, Strain/Sex: C3H/Female offspring, Route: Oral, Dose: 0, 85 ppm in utero and in drinking water to 365 days) was “inactive; negative” and the carcinogen call (Species: Mouse, Strain/Sex: C3H/HeNCr F344/ Male and female (25-35/Group as offspring of 10 dams per exposure level), Route: Drinking water, Dose: 0, 42.5, 85 ppm ad lib on gestation days 8-18, study duration for offspring 90 wks, Tumor Site: Type of Lesion: Male offspring: Liver: hepatocellular carcinoma (statistically significant increase in incidence and multiplicity), Adre) was “active; positive”. For the same molecule, the carcinogen call (Species: Mouse, Strain/Sex: C3H/Male offspring, Route: Oral, Dose: 0, 85 ppm (in drinking water of dam) in utero) was “inactive; negative”, the carcinogen call (Species: Mouse, Strain/Sex: C3H/Male offspring, Route: Oral, Dose: 0, 85 ppm in drinking water post pubescence (PND 56) to 365 days) was “inactive; negative (decreased incidence of spontaneous tumors)” and the carcinogen call (Species: Mouse, Strain/Sex: C3H/Male offspring, Route: Oral, Dose: 0, 85 ppm in drinking water prior to pubescence (PND 21) to 365 days) was “inactive; negative (decreased incidence of spontaneous tumors)”. For the same molecule, the carcinogen call (Species: Mouse, Strain/Sex: C3H/Male offspring, Route: Oral, Dose: 0, 85 ppm in utero and in drinking water to 365 days, Tumor Site: Type of Lesion: Liver: adenoma and carcinoma (30%, 0%)) was “active; positive”.

c1ccc2c(c1)ccc1cc3ccc4ccccc4c3nc12 was tested, and the carcinogen call (Species: MOUSE, Strain/Sex: CD-1/FEMALE, Route: INTRAPERITONEAL, Dose: 0, 175 NMOL (TOTAL DOSE) ADMINISTERED AS 1/7 OF DOSE WITHIN 24 HR AFTER BIRTH, 2/7 OF DOSE AT 8 D OLD, 4/7 OF DOSE AT 15, Tumor Site: Type of Lesion: LUNG: TUMOR) was “active; positive” and the carcinogen call (Species: MOUSE, Strain/Sex: CD-1/MALE, Route: INTRAPERITONEAL, Dose: 0, 175 NMOL (TOTAL DOSE) ADMINISTERED AS 1/7 OF DOSE WITHIN 24 HR AFTER BIRTH, 2/7 OF DOSE AT 8 D OLD, 4/7 OF DOSE AT 15, Tumor Site: Type of Lesion: LIVER: TUMOR, LUNG: TUMOR) was “active; positive”.

For CC(C)=CCC/C(C)=C/C=C/C(C)=C/C=C/C(C)=C/C=C/C=C(C)/C=C/C=C(C)/C=C/C=C(\C)CCC=C(C)C, the carcinogen call (Species: MOUSE, Strain/Sex: C57BL/6J/MALE, Route: ORAL, Dose: 0, 50, 200 PPM IN DRINKING WATER FOR 80 WK (STUDY DURATION: 80 WK), Dose: 0, 50, 200 PPM IN DRINKING WATER FOR 80 WK (STUDY DURATION: 80 WK)) was “inactive; negative”.

With CC(=O)OCc1c2ccccc2c2ccc3cccc4ccc1c2c43 the carcinogen call (Species: MOUSE, Strain/Sex: B6C3F1/MALE, Route: INTRAPERITONEAL, Dose: 0, 0.0025, 0.005 UMOL/G ONCE AT 12 DAYS OF AGE (STUDY DURATION: 10 MO), Dose: 0, 0.0025, 0.005 UMOL/G ONCE AT 12 DAYS OF AGE (STUDY DURATION: 10 MO), Tumor Site: Type of Lesion: LIVER: HEPATOMA) was “active; positive”.

With C=CC(O)c1ccc(OC)cc1 (stereo unspecified) the carcinogen call (Species: MOUSE, Strain/Sex: CD-1/MALE, Route: SUBCUTANEOUS, Dose: 0, 0.17 UMOL IN 0.025 ML TRIOCTANOIN WITHIN 24 H AFTER BIRTH THEN 0, 0.47 UMOL IN 0.05 ML TRIOCTANOIN ON D 8, 0, 0.95 UM, Dose: 0, 0.17 UMOL IN 0.025 ML TRIOCTANOIN WITHIN 24 H AFTER BIRTH THEN 0, 0.47 UMOL IN 0.05 ML TRIOCTANOIN ON D 8, 0, 0.95 µM, Tumor Site: Type of Lesion: LIVER: HEPATOCELLULAR CARCINOMA) was “active; positive”.

Nc1ccc2cc3ccccc3cc2c1 was tested, and the carcinogen call (Species: HAMSTER, Strain/Sex: SYRIAN, Route: DERMAL, Dose: 4 DROPS OF 1% SOLN IN ACETONE 2/WK FOR 10 WK, 8 DROPS FOR 40 WK, 4 DROPS FOR 5 WK, Tumor Site: Type of Lesion: INTEGUMENTARY SYSTEM (SKIN): PAPILLOMA, EPIDERMAL TUMOR) was “active; positive”, the carcinogen call (Species: MOUSE, Strain/Sex: MALE,FEMALE, Route: DERMAL, Dose: 1% SATURATED SOLN IN ACETONE 2/WK (0.025 ML FOR 30 D OR 0.1 ML FOR 140 D), THEN 0.05 ML THEREAFTER, Tumor Site: Type of Lesion: INTEGUMENTARY SYSTEM (SKIN): SQUAMOUS CELL EPITHELIOMA) was “active; positive” and the carcinogen call (Species: RAT, Strain/Sex: ALBINO/MALE, Route: DERMAL, Dose: 1% IN ACETONE 2/WK FOR 34-36 WK, Tumor Site: Type of Lesion: INTEGUMENTARY SYSTEM (SKIN): SQUAMOUS CELL CARCINOMA, BASAL CELL EPITHELIOMA, FIBROSARCOMA) was “active; positive”. The carcinogen call (Species: RAT, Strain/Sex: F344/MALE,FEMALE, Route: DERMAL, Dose: 0.18 ML OF 1% SOLN IN ACETONE 2/WK FOR 180 OR 250-300 D, Tumor Site: Type of Lesion: INTEGUMENTARY SYSTEM (SKIN): SQUAMOUS CELL CARCINOMA, BASAL CELL EPITHELIOMA, FIBROSARCOMA) was “active; positive”, the carcinogen call (Species: RAT, Strain/Sex: HOLTZMAN/MALE,FEMALE, Route: DERMAL, Dose: 0.18 ML OF 1% SOLN IN ACETONE 2/WK FOR 180 OR 250-300 D, Tumor Site: Type of Lesion: INTEGUMENTARY SYSTEM (SKIN): SQUAMOUS CELL CARCINOMA, BASAL CELL EPITHELIOMA, FIBROSARCOMA) was “active; positive” and the carcinogen call (Species: RAT, Strain/Sex: LONG-EVANS/MALE,FEMALE, Route: DERMAL, Dose: 0.18 ML OF 1% SOLN IN ACETONE 2/WK FOR 180 OR 250-300 D, Tumor Site: Type of Lesion: INTEGUMENTARY SYSTEM (SKIN): SQUAMOUS CELL CARCINOMA, BASAL CELL EPITHELIOMA, FIBROSARCOMA) was “active; positive”. The carcinogen call (Species: RAT, Strain/Sex: SPRAGUE-DAWLEY/FEMALE, Route: GAVAGE, Dose: 0.05, 1.0, 2.5 MG IN 1 ML SESAME OIL 1/3 D FOR 10 D (TOTAL DOSE 0.5-25 MG), Dose: 0.05, 1.0, 2.5 MG IN 1 ML SESAME OIL 1/3 D FOR 10 D (TOTAL DOSE 0.5-25 MG), Tumor Site: Type of Lesion: MAMMARY GLAND) was “active; positive”.

In the case of O=CNc1nc(-c2ccc([N+](=O)[O-])o2)cs1, the carcinogen call (Species: DOG, Route: ORAL, Tumor Site: Type of Lesion: URINARY BLADDER, GALL BLADDER) is reported as “active; positive”, the carcinogen call (Species: MOUSE, Route: ORAL, Tumor Site: Type of Lesion: URINARY BLADDER) is reported as “active; positive” and the carcinogen call (Species: MOUSE, Strain/Sex: CD-1/FEMALE, Route: ORAL, Dose: 0, 0.1% IN DIET FOR 36 WK (STUDY DURATION: 81 WK), Tumor Site: Type of Lesion: BLADDER: TRANSITIONAL CELL CARCINOMA, SPINDLE CELL TUMOR, SQUAMOUS CELL CARCINOMA) is reported as “active; positive”. For the same molecule, the carcinogen call (Species: MOUSE, Strain/Sex: CD-1/MALE, Route: ORAL, Dose: 0, 0.1% IN DIET FOR 40 WK (STUDY DURATION: 70 WK), Tumor Site: Type of Lesion: BLADDER: TRANSITIONAL CELL CARCINOMA, SPINDLE CELL TUMOR, SQUAMOUS CELL CARCINOMA) was “active; positive”, the carcinogen call (Species: RAT, Route: ORAL, Tumor Site: Type of Lesion: KIDNEY, MAMMARY GLAND) was “active; positive” and the carcinogen call (Species: RAT, Strain/Sex: F344/MALE, Route: ORAL, Dose: 0.001-0.2% IN DIET FOR 30 WK, Tumor Site: Type of Lesion: URINARY BLADDER: CARCINOMA) was “active; positive”. For the same molecule, the carcinogen call (Species: RAT, Strain/Sex: SPRAGUE-DAWLEY/FEMALE, Route: ORAL, Dose: 0, 0.188% IN DIET FOR 20 WK FOLLOWED BY CONTROL DIET FOR 20 WK (STUDY DURATION: 40 WK), Tumor Site: Type of Lesion: BLADDER: TRANSITIONAL CELL CARCINOMA) was “active; positive” and the carcinogen call (Species: RAT, Strain/Sex: SPRAGUE-DAWLEY/FEMALE, Route: ORAL, Dose: 0.188% IN DIET FOR 20 WK THEN BASAL DIET FOR 20 WK, Tumor Site: Type of Lesion: URINARY BLADDER: TRANSITIONAL CELL CARCINOMA) was “active; positive”.

For Cc1ccc(N)c(C)c1, the carcinogen call (Species: MOUSE, Strain/Sex: CD-1/FEMALE, Route: ORAL, Tumor Site: Type of Lesion: LUNG) was “active; positive”.
